Test results published in PMC5454994, “Assembly of Hepatocyte Spheroids Using Magnetic 3D Cell Culture for CYP450 Inhibition/Induction” (International Journal of Molecular Sciences, 2017).

Experiments:
[1] = molecular target: T1, CYP1A2 (Homo sapiens, UniProt P05177); experiment: CYP1A2 activity (P450-Glo, Luciferin-1A2) in primary human hepatocyte spheroids and monolayers after 72 h drug exposure; type: in vitro ADME; conditions: primary human hepatocytes, 72 h exposure
T1 sequence (P05177 1-516): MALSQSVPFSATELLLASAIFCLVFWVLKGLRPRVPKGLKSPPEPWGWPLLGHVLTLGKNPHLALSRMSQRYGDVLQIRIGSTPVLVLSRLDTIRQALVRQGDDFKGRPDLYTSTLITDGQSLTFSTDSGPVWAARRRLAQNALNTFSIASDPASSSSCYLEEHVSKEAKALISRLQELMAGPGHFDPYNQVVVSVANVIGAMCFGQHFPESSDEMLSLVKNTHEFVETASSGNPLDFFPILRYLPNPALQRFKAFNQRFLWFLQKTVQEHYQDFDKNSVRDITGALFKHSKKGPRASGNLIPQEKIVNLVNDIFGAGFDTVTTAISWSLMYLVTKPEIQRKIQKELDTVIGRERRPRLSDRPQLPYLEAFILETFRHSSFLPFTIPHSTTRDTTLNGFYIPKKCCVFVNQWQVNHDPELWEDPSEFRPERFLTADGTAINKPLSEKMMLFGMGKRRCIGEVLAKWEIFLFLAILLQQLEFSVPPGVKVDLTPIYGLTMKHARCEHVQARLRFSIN

[2] = molecular target: T2, CYP2B6 (Homo sapiens, UniProt P20813); conditions: CYP2B6 replicates, primary human hepatocytes, 72 h exposure
T2 sequence (P20813 1-491): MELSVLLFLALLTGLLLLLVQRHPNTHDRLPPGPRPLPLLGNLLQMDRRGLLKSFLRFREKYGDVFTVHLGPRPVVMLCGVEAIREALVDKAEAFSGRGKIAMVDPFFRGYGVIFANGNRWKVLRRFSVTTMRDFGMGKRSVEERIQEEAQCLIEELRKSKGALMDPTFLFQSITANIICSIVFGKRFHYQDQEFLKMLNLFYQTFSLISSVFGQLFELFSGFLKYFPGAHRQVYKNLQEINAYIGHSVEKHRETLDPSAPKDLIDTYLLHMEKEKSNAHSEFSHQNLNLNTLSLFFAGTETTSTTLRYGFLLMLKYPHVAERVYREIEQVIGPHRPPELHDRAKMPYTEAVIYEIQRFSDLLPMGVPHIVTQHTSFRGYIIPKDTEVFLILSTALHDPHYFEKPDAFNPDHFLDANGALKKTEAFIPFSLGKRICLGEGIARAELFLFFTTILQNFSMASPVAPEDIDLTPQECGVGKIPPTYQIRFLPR

| SMILES | CYP1A2 activity in the presence of toxicity [1] | CYP1A2 induction, monolayers compared to spheroids ([1]; normalized to control) | CYP2B6 activity in the presence of toxicity [2] |
| --- | --- | --- | --- |
| COc1ccc2[nH]c([S+]([O-])Cc3ncc(C)c(OC)c3C)nc2c1 (stereo not drawn) [omeprazole] | no observed decrease in CYP activity despite toxicity | higher in monolayers compared to spheroids | – |
| CO[C@H]1/C=C/O[C@@]2(C)Oc3c(C)c(O)c4c(O)c(c(/C=N/N5CCN(C)CC5)c(O)c4c3C2=O)NC(=O)/C(C)=C\C=C\[C@H](C)[C@H](O)[C@@H](C)[C@@H](O)[C@@H](C)[C@H](OC(C)=O)[C@@H]1C [rifampicin] | – | – | no observed decrease in CYP activity despite toxicity |
